{"source": "patent US4463009A", "about": "“Dialkyl 1-(2-pyridinylthio)-1,2-hydrazinedicarboxylate, N-oxides and their use as animal growth stimulants” (priority 1983, dated 1984)", "key": {"Strep. faecalis": {"test_system": "Strep. faecalis", "test": "chemotherapeutic activity, m.i.c. against Strep. faecalis", "format": "cell-based", "conditions": "Enterococcus faecalis"}, "Staph. aureus": {"test_system": "Staph. aureus", "test": "chemotherapeutic activity, m.i.c. against Staph. aureus", "format": "cell-based", "conditions": "Staphylococcus aureus"}, "E. coli": {"test_system": "E. coli", "test": "chemotherapeutic activity, m.i.c. against E. coli", "format": "cell-based", "conditions": "Escherichia coli"}, "[1]": {"test_system": "Ileal inoculum (filtrate) of Yorkshire barrow", "test": "in vitro incubation with inoculum from cannulated swine (ileal)", "format": "cell-based", "conditions": "5 hours at 37°", "method": "A Yorkshire barrow is surgically prepared either with an ileal cannula, which is placed 15 cm. from the ileo-ceco-colic junction, or a cecal cannula, which placed midway between the apex and origin of the cecum. The animal is fed 4 times daily to restrict intake to 4.5% of body weight in a 30 kg animal or 2.5% of body weight in a 100 kg animal. The swine grower ration is:\nSampling of the material, via the cannula, begins 150-180 minutes following the first morning feeding and continues any time from 30-120 minutes thereafter, depending on the quantity of material needed. The sample is maintained in crushed ice, no cooler than 5°, and is gassed continuously with carbon dioxide. The collected material is filtered. The filtrate is the inoculum used for incubations of the test and control samples. […] Four blank control tubes, along with the test compound tubes, are incubated 5 hours at 37° with agitation. Four more killed tubes are included which are not incubated.\nThe tubes are each treated with 0.60 ml of a 25% solution of metaphosphoric acid, then, stored at -4° until analysis. Samples are thawed and centrifuged for 25 minutes at 20,000 r.p.m. The supernatent liquid is decanted, sampled for gas chromatography and automatic analysis. The results are fed into a computer for finishing to give figures in which the blank control value is 100%. Virginiamycin is used as a positive control.\n*VFA refers to the total of volatile fatty acids, namely acetate,\npropionate, isobutyrate, butyrate, isovalerate and valerate. LYS is\nlysine, GLU is glucose and LAC is Llactic acid."}, "C. albicans": {"test_system": "C. albicans", "test": "chemotherapeutic activity, m.i.c. against C. albicans", "format": "cell-based", "conditions": "Candida albicans"}, "broiler chicks": {"test_system": "broiler chicks", "test": "Chick Growth Study", "format": "in vivo, chicken", "conditions": "8 reps (8/rep)", "method": "One day old broiler chicks, selected for weight, health and sex, are housed in an environmentally controlled room with temperature at 80° F. and humidity at 40%. Chicks are fed ad libitum. Water is offered ad libitum. A rye or corn basal ration is fed during the acclimation period (days 1 and 2), then, mixed with the compound under test or control conditions on days 3-17. Either 8 pens (64 chicks) or 16 pens (128 chicks) are used for each test or control group.\nB. Representative results using diethyl 1-(2-pyridinylthio)-1,2-hydrazinedicarboxylate, N-oxide: […]"}, "[2]": {"conditions": "(3) positive control, 166.67 ppm"}}, "data": [{"molecule": "CCOC(=O)NN(Sc1cccc[n+]1[O-])C(=O)OCC", "note": "[diethyl 1-(2-pyridinylthio)-1,2-hydrazinedicarboxylate, N-oxide]", "values": [{"measurement": "MIC", "setting": "Strep. faecalis", "result": 3, "unit": "µg/mL"}, {"measurement": "MIC", "setting": "Staph. aureus", "result": 2, "unit": "µg/mL"}, {"measurement": "MIC", "setting": "E. coli", "result": 63, "unit": "µg/mL"}, {"measurement": "GLU (glucose)", "setting": "[1]; (1), 1.67 ppm", "result": "166 % of control values"}, {"measurement": "LAC (L-lactic acid)", "setting": "[1]; (1), 1.67 ppm", "result": "91 % of control values"}, {"measurement": "LYS (lysine)", "setting": "[1]; (1), 1.67 ppm", "result": "109 % of control values"}, {"measurement": "VFA (total volatile fatty acids)", "setting": "[1]; (1), 1.67 ppm", "result": "91 % of control values"}, {"measurement": "GLU (glucose)", "setting": "[1]; (1), 16.67 ppm", "result": "237 % of control values"}, {"measurement": "LAC (L-lactic acid)", "setting": "[1]; (1), 16.67 ppm", "result": "81 % of control values"}, {"measurement": "LYS (lysine)", "setting": "[1]; (1), 16.67 ppm", "result": "152 % of control values"}, {"measurement": "VFA (total volatile fatty acids)", "setting": "[1]; (1), 16.67 ppm", "result": "72 % of control values"}, {"measurement": "GLU (glucose)", "setting": "[1]; (1), 166.7 ppm", "result": "379 % of control values"}, {"measurement": "LAC (L-lactic acid)", "setting": "[1]; (1), 166.7 ppm", "result": "54 % of control values"}, {"measurement": "LYS (lysine)", "setting": "[1]; (1), 166.7 ppm", "result": "194 % of control values"}, {"measurement": "VFA (total volatile fatty acids)", "setting": "[1]; (1), 166.7 ppm", "result": "47 % of control values"}, {"measurement": "GLU (glucose)", "setting": "[1]; (2), 166.67 ppm", "result": "845 % of control values"}, {"measurement": "LAC (L-lactic acid)", "setting": "[1]; (2), 166.67 ppm", "result": "139 % of control values"}, {"measurement": "LYS (lysine)", "setting": "[1]; (2), 166.67 ppm", "result": "110 % of control values"}, {"measurement": "VFA (total volatile fatty acids)", "setting": "[1]; (2), 166.67 ppm", "result": "55 % of control values"}, {"measurement": "MIC", "setting": "C. albicans", "result": 63, "unit": "µg/mL"}, {"measurement": "Weight, 17 day", "setting": "broiler chicks; trial (1)", "result": "102.0 % of Control"}, {"measurement": "Dead", "setting": "broiler chicks; trial (1), 20 ppm in feed", "result": 1}, {"measurement": "Feed/Gain, days 3-10", "setting": "broiler chicks; trial (1), 20 ppm in feed", "result": "102.2 % of Control"}, {"measurement": "Feed/Gain, days 3-17", "setting": "broiler chicks; trial (1), 20 ppm in feed", "result": "101.7 % of Control"}, {"measurement": "Feed/Gain, days 10-17", "setting": "broiler chicks; trial (1), 20 ppm in feed", "result": "101.7 % of Control"}, {"measurement": "Weight, 10 day", "setting": "broiler chicks; trial (1), 20 ppm in feed", "result": "96.4 % of Control"}, {"measurement": "Weight, 17 day", "setting": "broiler chicks; trial (1), 20 ppm in feed", "result": "103.2 % of Control"}, {"measurement": "Dead", "setting": "broiler chicks; trial (1), 40 ppm in feed", "result": 4}, {"measurement": "Feed/Gain, days 3-10", "setting": "broiler chicks; trial (1), 40 ppm in feed", "result": "103.3 % of Control"}, {"measurement": "Feed/Gain, days 3-17", "setting": "broiler chicks; trial (1), 40 ppm in feed", "result": "98.4 % of Control"}, {"measurement": "Feed/Gain, days 10-17", "setting": "broiler chicks; trial (1), 40 ppm in feed", "result": "95.0 % of Control"}, {"measurement": "Weight, 10 day", "setting": "broiler chicks; trial (1), 40 ppm in feed", "result": "90.9 % of Control"}, {"measurement": "Dead", "setting": "broiler chicks; trial (2), 20 ppm in feed", "result": 4}, {"measurement": "Feed/Gain, days 3-10", "setting": "broiler chicks; trial (2), 20 ppm in feed", "result": "96.8 % of Control"}, {"measurement": "Feed/Gain, days 3-17", "setting": "broiler chicks; trial (2), 20 ppm in feed", "result": "96.4 % of Control"}, {"measurement": "Feed/Gain, days 10-17", "setting": "broiler chicks; trial (2), 20 ppm in feed", "result": "96.5 % of Control"}, {"measurement": "Weight, 10 day", "setting": "broiler chicks; trial (2), 20 ppm in feed", "result": "103.5 % of Control"}, {"measurement": "Weight, 17 day", "setting": "broiler chicks; trial (2), 20 ppm in feed", "result": "103.4 % of Control"}, {"measurement": "Dead", "setting": "broiler chicks; trial (3), 50 ppm in feed", "result": 0}, {"measurement": "Feed/Gain, days 3-10", "setting": "broiler chicks; trial (3), 50 ppm in feed", "result": "97.1 % of Control"}, {"measurement": "Feed/Gain, days 3-17", "setting": "broiler chicks; trial (3), 50 ppm in feed", "result": "93.6 % of Control"}, {"measurement": "Feed/Gain, days 10-17", "setting": "broiler chicks; trial (3), 50 ppm in feed", "result": "85.2 % of Control"}, {"measurement": "Weight, 10 day", "setting": "broiler chicks; trial (3), 50 ppm in feed", "result": "93.2 % of Control"}, {"measurement": "Weight, 17 day", "setting": "broiler chicks; trial (3), 50 ppm in feed", "result": "102.8 % of Control"}]}, {"molecule": "virginiamycin [reference compound]", "values": [{"measurement": "GLU (glucose)", "setting": "[1]; (3) positive control, 1.67 ppm", "result": "393 % of control values"}, {"measurement": "LAC (L-lactic acid)", "setting": "[1]; (3) positive control, 1.67 ppm", "result": "0 % of control values"}, {"measurement": "LYS (lysine)", "setting": "[1]; (3) positive control, 1.67 ppm", "result": "99 % of control values"}, {"measurement": "VFA (total volatile fatty acids)", "setting": "[1]; (3) positive control, 1.67 ppm", "result": "255 % of control values"}, {"measurement": "GLU (glucose)", "setting": "[1]; (3) positive control, 16.7 ppm", "result": "464 % of control values"}, {"measurement": "LAC (L-lactic acid)", "setting": "[1]; (3) positive control, 16.7 ppm", "result": "12 % of control values"}, {"measurement": "LYS (lysine)", "setting": "[1]; (3) positive control, 16.7 ppm", "result": "141 % of control values"}, {"measurement": "VFA (total volatile fatty acids)", "setting": "[1]; (3) positive control, 16.7 ppm", "result": "114 % of control values"}, {"measurement": "GLU (glucose)", "setting": "[1]; [2]", "result": "496 % of control values"}, {"measurement": "LAC (L-lactic acid)", "setting": "[1]; [2]", "result": "14 % of control values"}, {"measurement": "LYS (lysine)", "setting": "[1]; [2]", "result": "144 % of control values"}, {"measurement": "VFA (total volatile fatty acids)", "setting": "[1]; [2]", "result": "86 % of control values"}]}]}
